In patent US10517870B2, “Aryl substituted bicycle heteroaryl compounds” (Bristol-Myers Squibb Company, priority 2015, dated 2019):

Experiments:
Format in all cases: cell-based
[1] = tested on: HeLa (HPV18+) cells; test: Cell proliferation/viability assay, HeLa cells; conditions: Homo sapiens, 96 h, 4 days
Description: (§1) Caski (catalog number CRL-1550), SiHa (catalog number HTB-35), C33A (catalog number HTB-31), Saos-2 (ATCC HTB-85), and Hela (catalog number CCL-2) cells were obtained from the American Type Culture Collection (ATCC). The human cervical carcinoma cell lines Caski. SiHa, Hela and C33A, and the human osteosarcoma cell line Saos-2, and the human keratinocyte cell line HaCaT were cultured in Dulbecco's Modified Eagle Medium (DMEM, Invitrogen catalog number 11965-092) supplemented with 10% fetal bovine serum. The colorectal carcinoma cell line HCT-116 was cultured in Roswell Park Memorial Institute-1640 Medium (Invitrogen catalog number 11875-093) supplemented with 10% FBS. All cells were incubated at 37° C. in a humidified atmosphere with 5% CO2 in air. To establish the SCHPV-18 cell line, one million primary neonatal human foreskin keratinocytes (Invitrogen, catalog no. C-001-5C), cultured in KBM Gold-keratinocvte cell basal medium (Lonza, catalog no. 192060), were electroporated with 5 μg HPV-18 plasmid DNA (ATCC catalog no. 45152D) using the Amaxa Nucleofector II on setting T-007. Cells were co-transfected with 2 μg plasmid pZSGreen1-N1 (Clontech catalog no. 632448) encoding G418 resistance, and cells were selected for four days in 100 μg/ml G418, after which selection was removed. Cells were maintained in culture six months prior to compound testing. Integration of the HPV 18 genome was confirmed by Southern blot. Control cells transfected in parallel with pZSGreen1-N1 alone became senescent four days after selection and the culture could not be expanded. SCHPV-18 cells were maintained in E medium (Fehrmann F, Laimins L A. Human papillomavirus type 31 life cycle: methods for study using tissue culture models. Methods Mol Biol 2005; 292:317-330).
(§2) For proliferation assays, cells were plated in white polystyrene 96-well plates (Costar catalog number 3917) for CellTiter Glo viability assays or 96-well special optics plates (Costar cat #3614) for CellTiter Blue viability assays. Cells were plated in the appropriate growth medium without antibiotics. Two hours after cell plating, a 200× compound stock diluted in DMSO was added to a final concentration of 0.5%. Plates were incubated at 37° C., for 4 days and then cell viability was assessed using either CellTiter Blue (Promega catalog number G8081) or CellTiter Glo (Promega catalog number G7572) according to the manufacturer's instructions. For the CellTiter Blue viability assay, data was collected using the SpectraMax Gemini EM (Molecular Devices) with an excitation wavelength of 530 nm and emission wavelength of 590 nm. For the CellTiter Glo viability assay, data was collected using the Envision Mulitlabel Reader (Perkin Elmer catalog number 2104-0010). To calculate IC50 and EC50 values, percent inhibition curves were fit using a four-parameter logistic formula [y=A+[…]], where A and B denote minimal and maximal % inhibition, respectively, C is the IC50 value, D is the Hill slope, and x represents compound concentration.
(§3) Table C, below, sets out the results obtained employing various compounds of the invention tested for their effects on proliferation of such cells. Caski or SiHa cells, transformed by HPV 16, Hela cells, transformed by HPV 18, or HPV-negative control cell lines (Saos-2 or C33a) were treated with various compounds. […] Unlike the HPV-negative Saos-2 or C33a cell lines, the HPV-transformed cell lines rely on the presence of HPV for their continued proliferation. Therefore, a comparison of IC50 values from HPV-transformed cell lines with IC50 values obtained from HPV-negative cell lines can be used to test for compound selectivity.

[2] = tested on: C33A (HPV−) cells; test: Cell proliferation/viability assay, C33A cells; conditions: Homo sapiens, C-33-A, 96 h; C33A, HPV-negative, 4 days; read-out: C33A (HPV−) Proliferation IC50
Description: as §1, §2, §3

[3] = tested on: SiHa (HPV16+) cells; test: Cell proliferation/viability assay, SiHa cells; conditions: Homo sapiens, 96 h, 4 days
Description: as §1, §2, §3

[4] = tested on: Caski (HPV16+) cells; test: Cell proliferation/viability assay, Caski cells; conditions: Homo sapiens, Ca-Ski, 96 h, 4 days
Description: as §1, §2, §3

[5] = tested on: Saos-2 (HPV−) cells; test: Cell proliferation/viability assay, Saos-2 cells; conditions: Homo sapiens, 96 h; Saos-2, HPV-negative, 4 days; read-out: Saos-2 (HPV−) Proliferation IC50
Description: as §1, §2, §3

SMILES	IC50 [1]	IC50 [2]	IC50 [3]	IC50 [4]	IC50 [5]
COc1ccc(-c2cc3ncc(OC(F)F)nc3cc2C(F)(F)F)cc1 [Example 7, 2-(difluoromethoxy)-6-(4-methoxyphenyl)-7-(trifluoromethyl)quinoxaline]	4.4 µM	> 100 µM	4.3 µM	5 µM	92.1 µM
COc1ccc(-c2cc(C(F)(F)F)cc3nc(OC(F)F)cnc23)cc1C(F)(F)F [Example 9, 2-(difluoromethoxy)-5-(4-methoxy-3-(trifluoromethyl)phenyl)-7-(trifluoromethyl)quinoxaline]	1.5 µM	78.7 µM	1.7 µM	3.3 µM	76.2 µM
COc1cccc(-c2cc(C(F)(F)F)cc3nc(OC(F)F)cnc23)c1 [Example 10, 2-(difluoromethoxy)-5-(3-methoxyphenyl)-7-(trifluoromethyl)quinoxaline]	4.4 µM	> 99.5 µM	5.1 µM	3.9 µM	55 µM
COc1ccc2cc(-c3cc(C(F)(F)F)cc4nc(OC(F)F)cnc34)ccc2c1 [Example 11, 2-(difluoromethoxy)-5-(6-methoxynaphthalen-2-yl)-7-(trifluoromethyl)quinoxaline]	2.1 µM	> 99.5 µM	2.7 µM	2.9 µM	45.9 µM
COc1ccc(-c2cc(C(F)(F)F)cc3nc(OC(F)F)cnc23)cc1F [Example 12]	1.1 µM	> 99.5 µM	1.3 µM	3.2 µM	14.3 µM
COc1cc(-c2cc(C(F)(F)F)cc3nc(OC(F)F)cnc23)cc(C(F)(F)F)c1 [Example 13, 2-(difluoromethoxy)-5-(3-methoxy-5-(trifluoromethyl)phenyl)-7-(trifluoromethyl)quinoxaline]	37 µM	40.5 µM	24 µM	15.6 µM	40.3 µM
COc1ccc(-c2cc(C(F)(F)F)cc3ncc(OC(F)F)nc23)cc1 [Example 14, 2-(difluoromethoxy)-8-(4-methoxyphenyl)-6-(trifluoromethyl)quinoxaline]	2.6 µM	49.9 µM	2.9 µM	2.8 µM	57.7 µM
COc1ccc(-c2cc(C)cc3nc(OC(F)F)cnc23)cc1C(F)(F)F [Example 16, 2-(difluoromethoxy)-5-(4-methoxy-3-(trifluoromethyl)phenyl)-7-methylquinoxaline]	9.1 µM	> 99.5 µM	9.4 µM	7 µM	> 99.5 µM
Cc1cc(-c2ccc(F)c(C(F)(F)F)c2)c2ncc(OC(F)F)nc2c1 [Example 17, 2-(difluoromethoxy)-5-(4-fluor-3-(trifluoromethyl)phenyl)-7-methylquinoxaline]	23.7 µM	58.3 µM	17.8 µM	17.9 µM	96.5 µM
Cc1cc(-c2cccc(C(F)(F)F)c2)c2ncc(OC(F)F)nc2c1 [Example 25, 2-(difluoromethoxy)-7-methyl-5-(3-(trifluoromethyl)phenyl)quinoxaline]	15.2 µM	> 100 µM	11.7 µM	14.5 µM	> 100 µM
